Results published in paper PMC11672299, “Conjugation of Polycationic Peptides Extends the Efficacy Spectrum of β‐Lactam Antibiotics” (Advanced Science, 2024).
Read-outs that look alike come from different tables or passages of the source.

How the values were obtained:
[1] = test system: C. freundii Tü21‐052 (clinical isolate); experiment: microbe, parasite or virus in culture; type: cell-based; conditions: Citrobacter freundii; C. freundii Tü21‐052; median (n = 3); read-out: MIC
Outline: (§1)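 Twofold serial dilutions in cation-adjusted MHB II were inoculated at 5 × 10^5 CFU mL^−1 and incubated 20 h at 37 ± 1 °C. The MIC was the lowest concentration preventing visible growth. Combinations used fixed clavulanic acid (2 mg L^−1) or avibactam (4 mg L^−1).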

[2] = test system: A. baumannii SC300007 (Oxa23); experiment: microbe, parasite or virus in culture; type: cell-based; conditions: Acinetobacter baumannii, 20 h, combinations: avibactam fixed 4 mg L^−1, clavulanic acid 2 mg L^−1, median (n = 3)
Outline: as §1

[3] = test system: E. coli Tü21‐031 (Oxa244, ESBL); experiment: microbe, parasite or virus in culture; type: cell-based; conditions: Escherichia coli, combinations: avibactam fixed 4 mg L^−1, median (n = 3)
Outline: as §1

[4] = test system: K. pneumoniae BL809453 (KPC); experiment: microbe, parasite or virus in culture; type: cell-based; conditions: Klebsiella pneumoniae, 20 h, combinations: avibactam fixed 4 mg L^−1, clavulanic acid 2 mg L^−1, median (n = 3)
Outline: as §1

[5] = test system: K. pneumoniae 0 6841/Nr.45 (Oxa48); experiment: microbe, parasite or virus in culture; type: cell-based; conditions: Klebsiella pneumoniae, 20 h; K. pneumoniae 06841/Nr.45 (Oxa48); combinations: avibactam fixed 4 mg L^−1, clavulanic acid 2 mg L^−1; median (n = 3)
Outline: as §1

B. subtilis DSM 10 = experiment: Time‐kill assay; type: cell-based; conditions: for killing mechanism (time‐kill kinetics, CFU mL^−1): 50 or 100 µM, over 24 h
Description: For determination of time‐kill kinetics of the β‐lactam–peptide conjugates and their parent β‐lactams, 14 mL of cation‐adjusted MHB II medium was inoculated with an B. subtilis DSM 10 overnight culture to obtain an OD600 of 0.5, corresponding to ≈10^8 CFU mL^−1. To this exponentially growing culture, 50 or 100 µM of each of the antibiotics was added except for a negative control culture which was treated with only water. The bacterial cultures were incubated at 30 °C and 200 rpm and the OD600 was measured on 1 mL aliquots taken at 0, 10, 30, 45, 60, 90, 120, 240, 360, 480 and 1440 min. Additionally, at the same time points, 15 µL of serial tenfold dilutions of the bacterial suspension were plated onto MHB II agar plates. The agar plates were incubated overnight at 30 °C. The next day, bacterial colonies were counted and the CFU mL^−1 were calculated (limit of detection: 10^1.8 CFU mL^−1). For each antibiotic the assay was performed in triplicate (three biological replicates).

[6] = test system: CTZ‐resistant P. aeruginosa (n = 2); type: cell-based
Description: The minimum inhibitory concentration (MIC) of the β‐lactam–peptide conjugates was determined by broth microdilution as previously described.^[ [17] ^] Briefly, in cation‐adjusted MHB II medium, a twofold serial dilution of the compounds was prepared in 96‐well round‐bottom polystyrene or polypropylene microtiter plates with each well containing 50 µL. The plates were inoculated with 50 µL bacterial suspension and the final inoculum, in a total volume of 100 µL, contained 5 × 10^5 CFU mL^−1. The microplates were incubated for 20 h at 37 ± 1 °C. The lowest concentration preventing visible bacterial growth was considered the MIC value. For susceptibility testing of combinations of β‐lactamase‐inhibitors with either a β‐lactam antibiotic or a β‐lactam–peptide conjugate, fixed concentrations of the inhibitors according to the EUCAST (European Committee on Antimicrobial Susceptibility Testing) guidelines (clavulanic acid = 2 mg L^−1, avibactam = 4 mg L^−1) were used.

PBP5 = experiment: Gel‐based PBP affinity assay (Bocillin FL competition); type: binding; conditions: PBPs from vancomycin‐resistant E. faecalis; compared with parent; at concentrations considerably higher than MICs
PBP2A = molecular target: T1, PBP2A (Bacillus subtilis, UniProt P54488); experiment: as above; type: binding; conditions: B. subtilis membrane fractions, competition with Bocillin FL penicillin; compared with parent β‐lactam
T1 construct: endogenous in cells; host or cells: B. subtilis DSM 10, extracted membrane protein fraction
T1 sequence (P54488 whole entry): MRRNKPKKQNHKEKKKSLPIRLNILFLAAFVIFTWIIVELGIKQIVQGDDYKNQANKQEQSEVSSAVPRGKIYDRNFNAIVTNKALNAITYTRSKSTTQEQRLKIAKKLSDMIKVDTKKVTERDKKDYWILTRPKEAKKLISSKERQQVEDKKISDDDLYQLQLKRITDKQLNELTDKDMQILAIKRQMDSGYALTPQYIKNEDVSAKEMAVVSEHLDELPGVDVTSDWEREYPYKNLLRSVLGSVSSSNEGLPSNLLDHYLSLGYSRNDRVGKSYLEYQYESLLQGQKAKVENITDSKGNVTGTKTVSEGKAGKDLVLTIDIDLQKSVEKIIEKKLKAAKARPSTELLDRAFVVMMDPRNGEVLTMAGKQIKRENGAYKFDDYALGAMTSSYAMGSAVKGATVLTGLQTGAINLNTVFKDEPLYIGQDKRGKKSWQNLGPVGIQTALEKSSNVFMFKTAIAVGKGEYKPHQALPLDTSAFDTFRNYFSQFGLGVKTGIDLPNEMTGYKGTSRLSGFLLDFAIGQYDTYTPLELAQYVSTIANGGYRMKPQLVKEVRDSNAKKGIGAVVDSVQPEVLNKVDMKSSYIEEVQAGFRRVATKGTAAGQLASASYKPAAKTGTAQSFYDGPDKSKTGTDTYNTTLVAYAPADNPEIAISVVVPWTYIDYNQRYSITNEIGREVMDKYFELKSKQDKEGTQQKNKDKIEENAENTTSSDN

| SMILES | MIC [1] [µg/mL] | MIC [2] [µg/mL] | MIC [3] [µg/mL] | MIC [4] [µg/mL] | MIC [5] [µg/mL] | killing mechanism (time‐kill kinetics, CFU mL^−1) (B. subtilis DSM 10) | MIC range ([6]; CTZ‐resistant P. aeruginosa (n = 2)) [µg/mL] | binding to PBP5 (PBP5) | affinity to PBP2A (PBP2A) | drop in CFU (to the detection limit) (B. subtilis DSM 10; 100 µM, after 6 h) [log units] | MIC range ([6]; CTZ‐resistant (n = 2, 20 h)) [µg/mL] |
| --- | --- | --- | --- | --- | --- | --- | --- | --- | --- | --- | --- |
| CC(C)(O/N=C(\C(=O)N[C@@H]1C(=O)N2C(C(=O)[O-])=C(C[n+]3ccccc3)CS[C@H]12)c1csc(N)n1)C(=O)O [CTZ, ceftazidime, reference compound] | 0.25 | > 64 | 32 | > 64 | > 64 | time‐dependent killing mechanism | 32 to 64 |  |  |  |  |
| CC(C)(O/N=C(\C(=O)N[C@@H]1C(=O)N2C(C(=O)[O-])=C(C[n+]3ccccc3)CS[C@H]12)c1csc(N)n1)C(=O)NCCCCCCN1C(=O)CC(SC[C@H](NC(=O)[C@H](CCCNC(=N)N)NC(=O)[C@H](CCCNC(=N)N)NC(=O)[C@H](CCCNC(=N)N)NC(=O)[C@H](CCCNC(=N)N)NC(=O)[C@H](CCCNC(=N)N)NC(=O)[C@@H](N)CCCNC(=N)N)C(N)=O)C1=O (stereo partly drawn) [CTZ-R6] |  |  |  |  |  | concentration‐dependent killing mechanism |  | slightly improved binding | significantly increased | 6 | 2 to 16 |
